In paper PMC9027599, “Secondary Metabolites in Basil, Bio-Insecticide, Inhibition Effect, and In Silico Molecular Docking against Proteolytic Enzymes of the Red Palm Weevil (Rhynchophorus ferrugineus)” (Plants, 2022):

Columns and labels:
[1] = test system: cysteine protease; test: Cysteine protease activity of midgut from larvae treated 24 h (in vivo); set-up: species or system Rhynchophorus ferrugineus; settings: midgut of fourth instar larvae treated for 24 h
Procedure: The activity of cysteine proteinase was determined in the fourth midgut instar larval homogenate of R. ferrugineus using the substrate Z-Phe-Arg-MNA [1]. […] The reaction was centrifuged (at 5000 rpm, 6 min), then the absorbance was determined (at 520 nm). The activity of cysteine proteinase was measured using an ELISA quick plate reader at the OD520/60 min/mg of midgut protein. […]
As a control, an assay combination devoid of inhibitors was utilized. The absorbance of the enzymes was determined using an ELISA plate quick reader at various wavelengths. The percentage activity of the control enzyme for each inhibitor was evaluated for each enzyme. Protease activity was assayed in vivo in the R. ferrugineus fourth midgut larval instars, which were treated with 1, 10, 50, 100, 500, 1000, and 5000 mg/L of extracts or compounds, measured as described above. […]

[2] = test system: elastase; test: Elastase activity of midgut from larvae treated 24 h (in vivo); set-up: species or system Rhynchophorus ferrugineus; settings: midgut of fourth instar larvae treated for 24 h
Procedure: (§1) The midguts were homogenized in the assay buffer (100 mM Tris-HCl, pH 8.1) and centrifuged for 30 min at 8000 rpm (Sigma 3K 30, rotors No. 12158). […] […] (100 mg/mL in DMF), BAρNA (100 mg/mL in DMSO), and […] (100 mg/mL in DMF) stock substrates were diluted in the assay buffer to 1 mg/mL, and substrate volume was 50 μL. […] The activity was quantified using an ELISA plate reader at a wavelength of 405 nm. As an empty well, an assay combination containing a denaturation enzyme was utilized instead of an active enzyme. […] To learn more about the proteases found in homogenate preparations of R. ferrugineus fourth midgut larval instars, inhibitors from many different types of mechanisms were used. […] As a control, an assay combination devoid of inhibitors was utilized. The absorbance of the enzymes was determined using an ELISA plate quick reader at various wavelengths. The percentage activity of the control enzyme for each inhibitor was evaluated for each enzyme. […] Larvae were exposed for 24 h to leaf discs treated with extract and compounds.

[3] = target: elastase; test: Serine proteinase microplate assay, SAAPLpNA (in vitro); format: biochemical, Rhynchophorus ferrugineus; settings: fourth instar larvae midgut homogenate
Procedure: as §1, with “The specific activities of serine proteinase were determined using a rapid quick microplate assay with substrates in reaction mixtures (150 μL) including a serine protease assay buffer, according to […] et al. and Olga et al. with modifications. The midguts” for “The midguts”

Row | SMILES | IC50 against cysteine protease (in vivo) [1] | IC50 against elastase (in vivo) [2] | IC50 against elastase (in vitro) [3]
1 | C[C@@H]1O[C@@H](OC[C@H]2O[C@@H](Oc3c(-c4ccc(O)c(O)c4)oc4cc(O)cc(O)c4c3=O)[C@H](O)[C@@H](O)[C@@H]2O)[C@H](O)[C@H](O)[C@H]1O [Quercetin-3-O-rutinoside] | 746.6 µg/mL | – | –
2 | O=C(/C=C/c1ccc(O)c(O)c1)O[C@H](Cc1ccc(O)c(O)c1)C(=O)O [Rosmarinic acid] | – | 119.7 µg/mL | 96.4 µg/mL
3 | COc1ccc(-c2cc(=O)c3c(O)c(OC)c(OC)cc3o2)cc1 [Salvigenin, 5-Hydroxy-6,7,4′-trimethoxyflavone] | – | 138.2 µg/mL | 105.6 µg/mL
